Assay results from PubChem BioAssay (NCI).
Where “and” joins values, the source holds several entries; their conditions need not be identical. Equal entries are not always repeated.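 At the GI50, growth is halved. TGI marks complete inhibition of growth.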

Assays:
Test in all cases: NCI anticancer screen, dose series, 384-well format
[1] = system: NCI-H460 NSCLC
[2] = system: NCI/ADR-RES ovarian
[3] = system: HS 578T breast
[4] = system: 786-0 renal
[5] = system: UACC-257 melanoma
[6] = system: KM12 colon
[7] = system: T-47D breast
[8] = system: HOP-62 NSCLC
[9] = system: LOX IMVI melanoma
[10] = system: HL-60(TB) leukemia
[11] = system: BT-549 breast
[12] = system: MCF7 breast
[13] = system: SF-539 CNS
[14] = system: SK-MEL-2 melanoma
[15] = system: NCI-H226 lung
[16] = system: HCT-15 colon
[17] = system: CAKI-1 renal
[18] = system: OVCAR-5 ovarian
[19] = system: PC-3 prostate
[20] = system: SF-268 CNS
[21] = system: ACHN renal
[22] = system: DU-145 prostate
[23] = system: CCRF-CEM leukemia
[24] = system: M14 melanoma
[25] = system: SR leukemia
[26] = system: SN12C renal
[27] = system: IGROV1 ovarian
[28] = system: SW-620 colon
[29] = system: A549 NSCLC
[30] = system: SNB-19 CNS

Oc1cccc(-c2nc(N3CCOCC3)c3oc4ncccc4c3n2)c1
GI50 [1]: 0.155 µM and 0.0441 µM | GI50 [2]: 0.24 µM and 0.151 µM | TGI [2]: > 100 µM and 18 µM | GI50 [3]: 0.0619 µM and 0.0861 µM | TGI [3]: 0.288 µM and 0.617 µM | GI50 [4]: 0.297 µM | TGI [4]: 1.48 µM | GI50 [5]: 0.535 µM and 0.35 µM | TGI [5]: 5.39 µM and 3.81 µM | GI50 [6]: 0.312 µM and 0.305 µM | TGI [6]: > 100 µM | GI50 [7]: 0.15 µM and 0.215 µM | GI50 [8]: 0.429 µM and 0.231 µM | TGI [8]: 3.82 µM and 2.81 µM | GI50 [9]: 0.318 µM and 0.207 µM | TGI [9]: 1.57 µM and 1.06 µM | GI50 [10]: 0.0622 µM and 0.0205 µM | TGI [10]: 0.978 µM and 0.217 µM | GI50 [11]: 0.0279 µM and 0.125 µM | TGI [11]: 0.347 µM and 0.493 µM | GI50 [12]: 0.208 µM and 0.099 µM | TGI [12]: 23.3 µM and 19.5 µM | GI50 [13]: 0.114 µM and 0.143 µM | TGI [13]: 1.59 µM and 11.4 µM | GI50 [14]: 0.808 µM | TGI [14]: 4.72 µM | GI50 [15]: 3.47 µM and 2.29 µM | TGI [15]: 22.4 µM and 5.68 µM | GI50 [16]: 0.128 µM and 0.104 µM | TGI [16]: > 100 µM and 38.5 µM | GI50 [17]: 0.395 µM and 0.255 µM | TGI [17]: 5.22 µM and 12.3 µM | GI50 [18]: 3.54 µM and 2.56 µM | GI50 [19]: 0.0408 µM and 0.0393 µM | TGI [19]: 1.73 µM and 0.299 µM | GI50 [20]: 0.239 µM and 0.394 µM | TGI [20]: 10.1 µM and 17.9 µM | GI50 [21]: 0.0707 µM and 0.0779 µM | TGI [21]: 2.44 µM and 0.563 µM | GI50 [22]: 0.154 µM and 0.112 µM | GI50 [23]: 0.202 µM | TGI [23]: 2.73 µM | GI50 [24]: 0.26 µM and 0.155 µM | GI50 [25]: 0.207 µM and 0.0612 µM | TGI [25]: 0.89 µM and 0.205 µM | GI50 [26]: 0.121 µM and 0.0433 µM | GI50 [27]: 0.115 µM and 0.155 µM | TGI [27]: 0.393 µM and 0.38 µM | GI50 [28]: 0.561 µM | TGI [28]: > 100 µM | GI50 [29]: 0.251 µM and 0.353 µM | TGI [29]: 1.68 µM and 15.4 µM | GI50 [30]: 1.26 µM and 1.38 µM | TGI [30]: > 100 µM and 24.3 µM
